Test results: US9949475B2, “Composition comprising active ingredient, oil and ionic liquid” (priority 2011, dated 2018)
In brackets after ≈: the same amount, converted by molar mass. Read-outs that look alike come from different tables or passages of the source.

Assay: Solubility of agrochemical active ingredient in oil comprising ionic liquid
Assay type: physicochemical
Settings: thermodynamic from solid, 21° C.
Text: Alternatively, the oil, which comprised the ionic liquid, was saturated with the active ingredient and the soluble fraction of active ingredient was quantified by means of HPLC. In the first line of the tables, in each case the weight ratios of oil to IL are given.

Question: What does the source list for `Cn1cc(C(=O)Nc2ccccc2-c2cc(F)c(F)c(F)c2)c(C(F)F)n1` [fluxapyroxad, 3-(difluoromethyl)-1-methyl-N-(3′,4′,5′-trifluorobiphenyl-2-yl)pyrazole-4-carboxamide]?
Answer: solubility (Cetiol B oil comprising ionic liquid, 21 °C, oil or lipid, Oil/IL 60/40 weight ratio, IL N-butyl-N′-methylimidazolium dimethylphosphate, read-out: Solubility of fluxapyroxad with Cetiol ® B as oil): 43.1 mg/mL; solubility (Cetiol B oil comprising ionic liquid, 21 °C, oil or lipid, Oil/IL 60/40 weight ratio, IL N-ethyl-N′-ethylimidazolium propionate, read-out: Solubility of fluxapyroxad with Cetiol ® B as oil): 50.8 mg/mL; solubility (Cetiol B oil comprising ionic liquid, 21 °C, oil or lipid, Oil/IL 60/40 weight ratio, IL N-ethyl-N′-methylimidazolium acetate, read-out: Solubility of fluxapyroxad with Cetiol ® B as oil): 54.9 mg/mL; solubility (Cetiol B oil comprising ionic liquid, 21 °C, oil or lipid, Oil/IL 60/40 weight ratio, IL N-ethyl-N′-methylimidazolium dibutylphosphate, read-out: Solubility of fluxapyroxad with Cetiol ® B as oil): 46 mg/mL; solubility (Cetiol B oil comprising ionic liquid, 21 °C, oil or lipid, Oil/IL 60/40 weight ratio, IL N-ethyl-N′-methylimidazolium heptanoate, read-out: Solubility of fluxapyroxad with Cetiol ® B as oil): 50 mg/mL; solubility (Cetiol B oil comprising ionic liquid, 21 °C, oil or lipid, Oil/IL 60/40 weight ratio, IL N-ethyl-N′-methylimidazolium octanoate, read-out: Solubility of fluxapyroxad with Cetiol ® B as oil): 49.5 mg/mL; solubility (Cetiol B oil comprising ionic liquid, 21 °C, oil or lipid, Oil/IL 60/40 weight ratio, IL N-propyl-N′-propylimidazolium acetate, read-out: Solubility of fluxapyroxad with Cetiol ® B as oil): 49.6 mg/mL; solubility (Cetiol B oil comprising ionic liquid, 21 °C, oil or lipid, Oil/IL 60/40 weight ratio, IL Tetrabutylammonium [2-(2-methoxyethoxy)ethoxy]acetate, read-out: Solubility of fluxapyroxad with Cetiol ® B as oil): 40.8 mg/mL; solubility (Cetiol B oil comprising ionic liquid, 21 °C, oil or lipid, Oil/IL 80/20 weight ratio, IL Cholinium octanoate, read-out: Solubility of fluxapyroxad with Cetiol ® B as oil): 20.8 mg/mL; solubility (Cetiol B oil comprising ionic liquid, 21 °C, oil or lipid, Oil/IL 80/20 weight ratio, IL N-butyl-N′-methylimidazolium dimethylphosphate, read-out: Solubility of fluxapyroxad with Cetiol ® B as oil): 29 mg/mL; solubility (Cetiol B oil comprising ionic liquid, 21 °C, oil or lipid, Oil/IL 80/20 weight ratio, IL N-ethyl-N′-methylimidazolium dibutylphosphate, read-out: Solubility of fluxapyroxad with Cetiol ® B as oil): 31.1 mg/mL; solubility (Cetiol B oil comprising ionic liquid, 21 °C, oil or lipid, Oil/IL 80/20 weight ratio, IL N-ethyl-N′-methylimidazolium heptanoate, read-out: Solubility of fluxapyroxad with Cetiol ® B as oil): 35.9 mg/mL; solubility (Cetiol B oil comprising ionic liquid, 21 °C, oil or lipid, Oil/IL 80/20 weight ratio, IL N-ethyl-N′-methylimidazolium octanoate, read-out: Solubility of fluxapyroxad with Cetiol ® B as oil): 34.3 mg/mL; solubility (Cetiol B oil comprising ionic liquid, 21 °C, oil or lipid, Oil/IL 80/20 weight ratio, IL N-propyl-N′-propylimidazolium acetate, read-out: Solubility of fluxapyroxad with Cetiol ® B as oil): 35.4 mg/mL; solubility (Cetiol B oil comprising ionic liquid, 21 °C, oil or lipid, Oil/IL 80/20 weight ratio, IL Tetrabutylammonium [2-(2-methoxyethoxy)ethoxy]acetate, read-out: Solubility of fluxapyroxad with Cetiol ® B as oil): 27.5 mg/mL; solubility (Cetiol B oil comprising ionic liquid, 21 °C, oil or lipid, Oil/IL 90/10 weight ratio, IL N-butyl-N′-methylimidazolium acetate, read-out: Solubility of fluxapyroxad with Cetiol ® B as oil): 23.7 mg/mL; solubility (Cetiol B oil comprising ionic liquid, 21 °C, oil or lipid, Oil/IL 90/10 weight ratio, IL N-ethyl-N′-ethylimidazolium propionate, read-out: Solubility of fluxapyroxad with Cetiol ® B as oil): 24.2 mg/mL; solubility (Cetiol B oil comprising ionic liquid, 21 °C, oil or lipid, Oil/IL 90/10 weight ratio, IL N-ethyl-N′-methylimidazolium acetate, read-out: Solubility of fluxapyroxad with Cetiol ® B as oil): 25.6 mg/mL; solubility (Cetiol B oil comprising ionic liquid, 21 °C, oil or lipid, Oil/IL 90/10 weight ratio, IL Tetrabutylammonium [2-(2-methoxyethoxy)ethoxy]acetate, read-out: Solubility of fluxapyroxad with Cetiol ® B as oil): 16 mg/mL; solubility (Cetiol B oil without ionic liquid, 21 °C, oil or lipid, 100 Oil (Cetiol B, no IL), read-out: Solubility of fluxapyroxad with Cetiol ® B as oil): 3 mg/mL (≈ 7.87 mM); solubility (neat Agnique AMD 12 (N,N-dimethyldodecanamide) oil, 21 °C, oil or lipid, 100 Oil (Agnique AMD 12, no IL), read-out: Solubility of fluxapyroxad with Agnique AMD 12 ® (N,N-dimethyldodecanamide, lauryl N,N-dimethylamide) as oil): 21 mg/mL (≈ 55.1 mM); solubility (neat N-butyl-N′-methylimidazolium acetate (ionic liquid), organic solvent or mixture, 100 IL (no oil), IL N-butyl-N′-methylimidazolium acetate, read-out: Solubility of fluxapyroxad with Agnique AMD 12 ® (N,N-dimethyldodecanamide, lauryl N,N-dimethylamide) as oil): 1 mg/mL (≈ 2.62 mM); solubility (neat N-ethyl-N′-ethylimidazolium propionate (ionic liquid), 21 °C, organic solvent or mixture, 100 IL (no oil), IL N-ethyl-N′-ethylimidazolium propionate, read-out: Solubility of fluxapyroxad with Solvesso ® 200 ND as oil): 45.7 mg/mL (≈ 120 mM); solubility (neat N-ethyl-N′-methylimidazolium acetate (ionic liquid), organic solvent or mixture, 100 IL (no oil), IL N-ethyl-N′-methylimidazolium acetate, read-out: Solubility of fluxapyroxad with Agnique AMD 12 ® (N,N-dimethyldodecanamide, lauryl N,N-dimethylamide) as oil): 1 mg/mL (≈ 2.62 mM); solubility (neat Solvesso 200 ND (oil), 21 °C, oil or lipid, 100 Oil (Solvesso 200 ND, no IL), read-out: Solubility of fluxapyroxad with Solvesso ® 200 ND as oil): 1.5 mg/mL (≈ 3.93 mM); solubility (neat cholinium octanoate (ionic liquid), 21 °C, organic solvent or mixture, 100 IL (no oil), IL Cholinium octanoate, read-out: Solubility of fluxapyroxad with Cetiol ® B as oil): 5 mg/mL (≈ 13.1 mM); solubility (neat ionic liquid (no oil), 21 °C, organic solvent or mixture, 100 IL (no oil), IL N-butyl-N′-methylimidazolium acetate, read-out: Solubility of fluxapyroxad with Cetiol ® B as oil): 42.4 mg/mL (≈ 111 mM); solubility (neat ionic liquid (no oil), 21 °C, organic solvent or mixture, 100 IL (no oil), IL N-butyl-N′-methylimidazolium dimethylphosphate, read-out: Solubility of fluxapyroxad with Cetiol ® B as oil): 5 mg/mL (≈ 13.1 mM); solubility (neat ionic liquid (no oil), 21 °C, organic solvent or mixture, 100 IL (no oil), IL N-ethyl-N′-ethylimidazolium propionate, read-out: Solubility of fluxapyroxad with Cetiol ® B as oil): 45.7 mg/mL (≈ 120 mM); solubility (neat ionic liquid (no oil), 21 °C, organic solvent or mixture, 100 IL (no oil), IL N-ethyl-N′-methylimidazolium acetate, read-out: Solubility of fluxapyroxad with Cetiol ® B as oil): 47.2 mg/mL (≈ 124 mM); solubility (neat ionic liquid (no oil), 21 °C, organic solvent or mixture, 100 IL (no oil), IL N-ethyl-N′-methylimidazolium dibutylphosphate, read-out: Solubility of fluxapyroxad with Cetiol ® B as oil): 9.5 mg/mL (≈ 24.9 mM); solubility (neat ionic liquid (no oil), 21 °C, organic solvent or mixture, 100 IL (no oil), IL N-ethyl-N′-methylimidazolium heptanoate, read-out: Solubility of fluxapyroxad with Cetiol ® B as oil): 26.9 mg/mL (≈ 70.5 mM); solubility (neat ionic liquid (no oil), 21 °C, organic solvent or mixture, 100 IL (no oil), IL N-ethyl-N′-methylimidazolium octanoate, read-out: Solubility of fluxapyroxad with Cetiol ® B as oil): 20.8 mg/mL (≈ 54.5 mM); solubility (neat ionic liquid (no oil), 21 °C, organic solvent or mixture, 100 IL (no oil), IL N-propyl-N′-propylimidazolium acetate, read-out: Solubility of fluxapyroxad with Cetiol ® B as oil): 36.7 mg/mL (≈ 96.2 mM); solubility (neat ionic liquid (no oil), 21 °C, organic solvent or mixture, 100 IL (no oil), IL Tetrabutylammonium [2-(2-methoxyethoxy)ethoxy]acetate, read-out: Solubility of fluxapyroxad with Cetiol ® B as oil): 9.5 mg/mL (≈ 24.9 mM); solubility (neat ionic liquid (no oil), organic solvent or mixture, 100 IL (no oil), IL N-ethyl-N′-methylimidazolium isononanoate, read-out: Solubility of fluxapyroxad with Agnique AMD 12 ® (N,N-dimethyldodecanamide, lauryl N,N-dimethylamide) as oil): 9.5 mg/mL (≈ 24.9 mM); solubility (oil or lipid, Oil/IL 90/10 weight ratio, IL N-butyl-N′-methylimidazolium acetate, read-out: Solubility of fluxapyroxad with Agnique AMD 12 ® (N,N-dimethyldodecanamide, lauryl N,N-dimethylamide) as oil): 36 mg/mL; solubility (oil/ionic liquid mixture, oil or lipid, Oil/IL 90/10 weight ratio, IL N-ethyl-N′-methylimidazolium isononanoate, read-out: Solubility of fluxapyroxad with Agnique AMD 12 ® (N,N-dimethyldodecanamide, lauryl N,N-dimethylamide) as oil): 32 mg/mL; solubility (organic solvent or mixture, 100 IL (no oil), IL Tetrabutylammonium [2-(2-methoxyethoxy)ethoxy]acetate, read-out: Solubility of fluxapyroxad with Agnique AMD 12 ® (N,N-dimethyldodecanamide, lauryl N,N-dimethylamide) as oil): 9.5 mg/mL (≈ 24.9 mM)
